This is an account of results in patent publication US20160214963A1, “INHIBITORS OF BRUTON'S TYROSINE KINASE” (Beyond Oncology Pharmaceutical LLC, priority 2013, published 2016).

Like-named read-outs stand apart in the source and are kept apart here. Where only a bound is given, the exact number is not on record here.

One assay deals with T1, NEK11 (Homo sapiens, UniProt Q8NG66).
T1 construct: literature Ambit
T1 sequence (Q8NG66 1-645): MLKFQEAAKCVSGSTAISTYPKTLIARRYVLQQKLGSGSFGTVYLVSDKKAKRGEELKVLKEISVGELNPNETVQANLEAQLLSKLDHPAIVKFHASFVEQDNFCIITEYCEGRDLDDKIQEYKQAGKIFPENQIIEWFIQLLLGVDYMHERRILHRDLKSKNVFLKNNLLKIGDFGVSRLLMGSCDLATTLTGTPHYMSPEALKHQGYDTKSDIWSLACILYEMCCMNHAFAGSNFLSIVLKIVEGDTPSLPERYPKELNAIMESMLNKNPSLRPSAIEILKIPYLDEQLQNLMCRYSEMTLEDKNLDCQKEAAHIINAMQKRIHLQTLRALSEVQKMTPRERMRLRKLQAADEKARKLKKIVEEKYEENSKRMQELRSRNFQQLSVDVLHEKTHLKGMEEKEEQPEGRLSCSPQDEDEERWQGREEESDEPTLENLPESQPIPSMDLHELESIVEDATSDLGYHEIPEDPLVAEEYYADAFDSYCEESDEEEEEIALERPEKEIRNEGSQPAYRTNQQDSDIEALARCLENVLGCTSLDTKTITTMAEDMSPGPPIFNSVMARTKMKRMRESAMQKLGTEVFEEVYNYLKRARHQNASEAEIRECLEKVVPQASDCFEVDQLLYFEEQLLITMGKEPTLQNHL
Particulars: 1 μM; cited from earlier work.

The target in another assay is T2, PDGFRB (Homo sapiens, UniProt P09619).
T2 construct: literature Ambit
Particulars: 1 μM; cited from earlier work.

The next assay addresses T3, CASK (Homo sapiens, UniProt O14936).
T3 construct: literature Ambit
T3 sequence (O14936 1-926): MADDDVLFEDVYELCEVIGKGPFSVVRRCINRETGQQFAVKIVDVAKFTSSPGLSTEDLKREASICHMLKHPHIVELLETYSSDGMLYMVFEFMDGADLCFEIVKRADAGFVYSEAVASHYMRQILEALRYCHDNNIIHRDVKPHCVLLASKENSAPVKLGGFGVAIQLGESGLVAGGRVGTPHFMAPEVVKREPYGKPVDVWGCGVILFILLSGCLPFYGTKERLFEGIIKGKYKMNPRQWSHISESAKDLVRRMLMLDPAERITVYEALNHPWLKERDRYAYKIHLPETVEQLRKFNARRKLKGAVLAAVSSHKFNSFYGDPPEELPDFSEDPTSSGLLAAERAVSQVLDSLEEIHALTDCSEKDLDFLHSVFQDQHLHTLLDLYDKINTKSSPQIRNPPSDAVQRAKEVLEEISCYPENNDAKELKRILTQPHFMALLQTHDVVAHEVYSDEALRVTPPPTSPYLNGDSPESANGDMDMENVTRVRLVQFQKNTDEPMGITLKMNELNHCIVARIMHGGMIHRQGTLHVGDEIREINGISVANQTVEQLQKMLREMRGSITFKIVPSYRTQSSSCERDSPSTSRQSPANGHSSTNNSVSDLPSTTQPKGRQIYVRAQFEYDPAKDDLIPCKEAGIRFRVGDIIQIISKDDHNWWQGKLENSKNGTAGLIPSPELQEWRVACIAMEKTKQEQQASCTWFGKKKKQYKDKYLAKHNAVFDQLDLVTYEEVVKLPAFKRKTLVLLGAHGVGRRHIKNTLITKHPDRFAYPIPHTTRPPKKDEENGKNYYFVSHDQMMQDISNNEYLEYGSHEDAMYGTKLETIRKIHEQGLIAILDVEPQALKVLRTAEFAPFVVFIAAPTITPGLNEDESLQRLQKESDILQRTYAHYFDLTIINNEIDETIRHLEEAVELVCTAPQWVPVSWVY
Particulars: 1 μM; cited from earlier work.

Assay [1] concerns the target T4, BMX (Homo sapiens, UniProt P51813).
T4 sequence (P51813 1-675): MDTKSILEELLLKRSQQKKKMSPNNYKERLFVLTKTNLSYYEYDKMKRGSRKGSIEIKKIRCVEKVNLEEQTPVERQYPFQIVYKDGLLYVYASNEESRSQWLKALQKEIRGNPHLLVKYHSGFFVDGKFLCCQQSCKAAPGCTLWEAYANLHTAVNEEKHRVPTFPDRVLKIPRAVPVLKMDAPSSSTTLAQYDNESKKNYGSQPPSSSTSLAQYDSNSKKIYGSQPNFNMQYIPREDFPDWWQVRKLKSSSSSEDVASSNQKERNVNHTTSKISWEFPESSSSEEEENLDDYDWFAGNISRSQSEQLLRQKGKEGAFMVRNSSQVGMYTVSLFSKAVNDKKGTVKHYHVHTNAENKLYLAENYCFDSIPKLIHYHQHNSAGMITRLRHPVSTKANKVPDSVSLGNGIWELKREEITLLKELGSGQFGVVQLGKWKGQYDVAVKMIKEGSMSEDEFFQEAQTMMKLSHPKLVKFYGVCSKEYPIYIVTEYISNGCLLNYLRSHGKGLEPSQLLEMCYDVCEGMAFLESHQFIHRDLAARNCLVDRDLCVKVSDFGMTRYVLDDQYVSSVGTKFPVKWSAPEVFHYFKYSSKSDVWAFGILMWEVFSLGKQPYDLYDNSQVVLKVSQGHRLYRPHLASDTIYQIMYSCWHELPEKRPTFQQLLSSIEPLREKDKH
As to conditions: at Km for ATP; cited from earlier work.

A further assay concerns the target T5, MINK (Homo sapiens, UniProt Q8N4C8).
T5 construct: literature Ambit
As to conditions: cited from earlier work.

The next assay concerns the target BTK (Homo sapiens, UniProt Q06187). In words: KINOMEscan competition binding assay, Kd.
Another assay deals with T6, TEC (Homo sapiens, UniProt P42680).
T6 sequence (P42680 1-631): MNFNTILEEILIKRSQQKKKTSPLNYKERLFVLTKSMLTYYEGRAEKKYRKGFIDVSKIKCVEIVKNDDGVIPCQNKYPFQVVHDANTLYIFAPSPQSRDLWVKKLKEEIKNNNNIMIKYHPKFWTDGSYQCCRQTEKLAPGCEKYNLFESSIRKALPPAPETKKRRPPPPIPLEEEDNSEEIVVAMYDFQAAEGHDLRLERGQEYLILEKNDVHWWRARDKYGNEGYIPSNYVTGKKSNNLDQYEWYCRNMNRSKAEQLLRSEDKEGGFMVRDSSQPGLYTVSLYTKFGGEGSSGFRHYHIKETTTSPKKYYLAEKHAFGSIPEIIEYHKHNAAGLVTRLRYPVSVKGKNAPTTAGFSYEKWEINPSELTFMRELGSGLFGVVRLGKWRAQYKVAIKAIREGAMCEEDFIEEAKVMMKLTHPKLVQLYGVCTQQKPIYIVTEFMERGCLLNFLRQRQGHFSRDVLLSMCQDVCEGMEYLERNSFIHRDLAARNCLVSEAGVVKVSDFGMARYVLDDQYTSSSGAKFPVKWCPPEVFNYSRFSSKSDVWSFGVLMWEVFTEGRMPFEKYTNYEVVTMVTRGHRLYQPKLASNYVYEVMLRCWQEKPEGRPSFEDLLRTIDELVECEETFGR
Description: KINOMEscan competition binding assay, Kd.

The target in assay [2] is T4, BMX. Description: KINOMEscan competition binding assay, Kd. More on the design: DNA tag for qPCR (T7 phage display or DNA tag added after HEK-293 expression); host or cells: E. coli BL21-derived host (T7 phage) or HEK-293. An excerpt:
The Hill Slope was set to −1.

A further assay addresses JAK3 (Homo sapiens, UniProt P52333). In words: KINOMEscan competition binding assay, Kd.
The test system of assay [3] is arthritis. Particulars: mice; cited from earlier work.
Assay [4] has as its system systemic lupus erythematosus (SLE). As to conditions: mouse model of SLE; cited from earlier work.
Assay [5] has as its system TNFα release in monocytes. Particulars: read-out: IC50 IgG-FcγR mediated TNFα release; cited from earlier work.
The subject of assay [6] is adjuvant-induced arthritis. As to conditions: rat AIA, combination; cited from earlier work.
Assay [7] relates to arthritis. As to conditions: 100 mg/kg oral, preventive mode; cited from earlier work.
Assay [8] relates to CD69 expression in B cells. Particulars: human whole blood; read-out: IC50 IgM-stimulated CD69 expression in B cells; cited from earlier work.
For assay [9], the system named is histamine release in mast cells. As to conditions: read-out: IC50 IgE-Fce cross-linking induced histamine release; cited from earlier work.
Another assay concerns CD69 expression. As to conditions: oral 3, 30, 100 mg/kg, cited from earlier work.
The test system of assay [10] is arthritis. Particulars: cited from earlier work.
The subject of assay [11] is hypersensitive immune responses. Particulars: rPCA, 30 mg/kg; cited from earlier work.

Chain of BTK (Q06187 whole entry): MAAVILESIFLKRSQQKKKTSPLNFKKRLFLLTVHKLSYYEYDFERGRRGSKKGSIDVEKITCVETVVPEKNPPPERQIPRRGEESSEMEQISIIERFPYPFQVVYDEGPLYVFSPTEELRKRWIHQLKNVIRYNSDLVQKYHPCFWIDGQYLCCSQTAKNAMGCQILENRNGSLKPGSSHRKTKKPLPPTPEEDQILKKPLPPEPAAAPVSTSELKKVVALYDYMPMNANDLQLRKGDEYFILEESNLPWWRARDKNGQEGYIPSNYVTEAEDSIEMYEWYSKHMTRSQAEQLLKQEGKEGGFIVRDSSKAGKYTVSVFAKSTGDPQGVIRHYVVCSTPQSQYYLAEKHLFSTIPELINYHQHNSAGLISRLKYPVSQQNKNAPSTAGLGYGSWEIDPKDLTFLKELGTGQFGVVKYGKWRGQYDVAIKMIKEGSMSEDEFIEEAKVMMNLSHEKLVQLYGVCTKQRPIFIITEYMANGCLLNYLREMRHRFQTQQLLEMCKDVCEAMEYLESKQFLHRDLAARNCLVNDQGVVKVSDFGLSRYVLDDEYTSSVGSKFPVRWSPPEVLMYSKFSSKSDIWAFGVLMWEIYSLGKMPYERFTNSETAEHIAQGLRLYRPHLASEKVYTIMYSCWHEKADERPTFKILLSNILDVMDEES
T5 sequence (Q8N4C8 whole entry): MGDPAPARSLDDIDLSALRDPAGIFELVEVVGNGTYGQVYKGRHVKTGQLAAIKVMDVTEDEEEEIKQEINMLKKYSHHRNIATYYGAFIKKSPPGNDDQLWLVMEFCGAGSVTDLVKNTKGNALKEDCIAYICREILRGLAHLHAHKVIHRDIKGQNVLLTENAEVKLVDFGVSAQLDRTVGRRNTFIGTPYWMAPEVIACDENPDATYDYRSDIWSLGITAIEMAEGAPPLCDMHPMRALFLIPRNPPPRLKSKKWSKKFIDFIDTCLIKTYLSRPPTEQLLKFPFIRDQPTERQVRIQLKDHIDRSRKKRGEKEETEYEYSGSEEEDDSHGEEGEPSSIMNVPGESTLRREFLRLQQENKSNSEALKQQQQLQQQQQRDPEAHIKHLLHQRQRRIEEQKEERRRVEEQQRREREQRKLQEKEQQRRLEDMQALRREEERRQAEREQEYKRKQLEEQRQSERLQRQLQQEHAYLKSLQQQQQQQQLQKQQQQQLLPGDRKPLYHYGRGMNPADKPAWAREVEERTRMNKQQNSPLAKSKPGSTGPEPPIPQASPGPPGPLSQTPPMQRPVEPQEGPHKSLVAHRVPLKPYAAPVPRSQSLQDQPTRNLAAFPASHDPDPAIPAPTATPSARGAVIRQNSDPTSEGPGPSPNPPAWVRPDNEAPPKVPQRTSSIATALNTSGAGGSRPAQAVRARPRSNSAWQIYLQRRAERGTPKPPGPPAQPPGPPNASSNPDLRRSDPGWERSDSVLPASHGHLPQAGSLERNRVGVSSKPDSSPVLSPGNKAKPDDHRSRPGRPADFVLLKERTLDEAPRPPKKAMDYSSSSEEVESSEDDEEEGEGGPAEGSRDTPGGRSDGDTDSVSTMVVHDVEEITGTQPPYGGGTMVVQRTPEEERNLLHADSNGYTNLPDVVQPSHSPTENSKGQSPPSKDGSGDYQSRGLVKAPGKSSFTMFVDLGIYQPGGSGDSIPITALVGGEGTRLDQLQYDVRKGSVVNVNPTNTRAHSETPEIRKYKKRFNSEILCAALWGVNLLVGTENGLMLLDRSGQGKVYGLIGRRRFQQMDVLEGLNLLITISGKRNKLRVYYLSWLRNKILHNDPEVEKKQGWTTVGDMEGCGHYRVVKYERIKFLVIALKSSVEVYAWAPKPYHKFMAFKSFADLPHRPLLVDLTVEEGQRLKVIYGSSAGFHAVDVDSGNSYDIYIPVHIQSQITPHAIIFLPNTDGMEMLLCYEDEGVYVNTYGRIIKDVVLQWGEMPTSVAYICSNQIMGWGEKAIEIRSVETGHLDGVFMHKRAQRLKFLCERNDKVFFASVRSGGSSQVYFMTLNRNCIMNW
T2 sequence (P09619 33-1106): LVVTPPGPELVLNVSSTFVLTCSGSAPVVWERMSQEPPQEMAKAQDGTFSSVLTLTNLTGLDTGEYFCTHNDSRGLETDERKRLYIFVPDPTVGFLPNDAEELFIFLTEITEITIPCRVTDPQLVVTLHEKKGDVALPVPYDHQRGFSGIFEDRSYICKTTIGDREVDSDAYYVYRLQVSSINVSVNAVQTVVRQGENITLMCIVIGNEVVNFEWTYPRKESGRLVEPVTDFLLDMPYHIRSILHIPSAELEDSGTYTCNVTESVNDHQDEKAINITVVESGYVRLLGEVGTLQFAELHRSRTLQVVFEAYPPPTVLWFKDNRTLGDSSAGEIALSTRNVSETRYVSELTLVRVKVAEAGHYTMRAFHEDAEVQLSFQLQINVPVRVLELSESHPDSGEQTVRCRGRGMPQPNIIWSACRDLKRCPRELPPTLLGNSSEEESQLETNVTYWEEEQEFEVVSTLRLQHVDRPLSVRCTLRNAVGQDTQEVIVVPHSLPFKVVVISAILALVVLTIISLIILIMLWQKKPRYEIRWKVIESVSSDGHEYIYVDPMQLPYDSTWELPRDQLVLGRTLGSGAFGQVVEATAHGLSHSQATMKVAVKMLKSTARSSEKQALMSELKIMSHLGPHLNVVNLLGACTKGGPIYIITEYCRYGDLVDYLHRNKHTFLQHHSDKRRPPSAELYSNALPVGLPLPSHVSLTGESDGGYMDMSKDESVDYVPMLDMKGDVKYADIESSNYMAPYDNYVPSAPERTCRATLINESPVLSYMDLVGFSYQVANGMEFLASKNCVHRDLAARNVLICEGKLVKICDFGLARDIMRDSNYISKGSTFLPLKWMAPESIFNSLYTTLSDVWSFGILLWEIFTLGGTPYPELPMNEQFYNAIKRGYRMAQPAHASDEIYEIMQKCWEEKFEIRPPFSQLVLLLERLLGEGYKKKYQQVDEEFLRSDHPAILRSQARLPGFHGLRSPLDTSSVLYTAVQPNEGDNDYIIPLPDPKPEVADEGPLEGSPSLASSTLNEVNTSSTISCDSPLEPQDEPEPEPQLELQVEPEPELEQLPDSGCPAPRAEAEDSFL
Chain of JAK3 (P52333 814-1124 limits assumed): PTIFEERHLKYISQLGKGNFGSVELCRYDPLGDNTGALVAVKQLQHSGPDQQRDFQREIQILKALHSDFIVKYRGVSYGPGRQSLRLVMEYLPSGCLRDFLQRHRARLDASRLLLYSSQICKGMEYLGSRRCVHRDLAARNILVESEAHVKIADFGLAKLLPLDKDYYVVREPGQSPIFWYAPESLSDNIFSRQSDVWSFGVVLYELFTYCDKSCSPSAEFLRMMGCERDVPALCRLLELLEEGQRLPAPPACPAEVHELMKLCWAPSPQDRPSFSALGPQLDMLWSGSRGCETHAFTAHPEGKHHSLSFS
Description for BTK: (§1) The assay is performed by combining three components: DNA-tagged kinase; immobilized ligand; and a test compound. The ability of the test compound to compete with the immobilized ligand is measured via quantitative PCR of the DNA tag. The kinase-tagged T7 phage strains were prepared in an E. coli host derived from the BL21 strain. E. coli were grown to log-phase and infected with T7 phage and incubated with shaking at 32° C. until lysis. The lysates were centrifuged and filtered to remove cell debris. The remaining kinases were produced in HEK-293 cells and subsequently tagged with DNA for qPCR detection. […] The liganded beads were blocked with excess biotin and washed with blocking buffer (SeaBlock (Pierce), 1% BSA, 0.05% Tween 20, 1 mM DTT) to remove unbound ligand and to reduce non-specific binding. […] All reactions were performed in polystyrene 96-well plates in a final volume of 0.135 ml. […] The kinase concentration in the eluates was measured by qPCR. An 11-point 3-fold serial dilution of each test compound was prepared in 100% DMSO at 100× final test concentration and subsequently diluted to 1× in the assay (final DMSO concentration=1%). […] Binding constants (Kds) were calculated with a standard dose-response curve using the Hill equation: Response=Background+(Signal−Background)/[1+(Kd^Hill Slope/Dose^Hill Slope)]. The Hill Slope was set to −1. […]
Description for JAK3: as §1
Description for TEC: as §1

In general, IC50 refers to the concentration that gives 50% inhibition. What is called Kd is the constant that tells how readily two partners part at equilibrium. Turning to `Cc1c(NC(=O)c2ccc(C(C)(C)C)cc2)cccc1-c1cn(C)c(=O)c(Nc2ccc(C(=O)N3CCOCC3)cc2)n1` [CGI-1746], the “displacement of control ligand, NEK11” value on NEK11 is 59%. The “displacement of control ligand, PDGFRB” value on PDGFRB was 59%. In addition, the “displacement of control ligand, CASK” value at CASK is reported as 69%. Further, on BMX [1], the half-maximal inhibitory concentration (IC50) is 1.87 µM. Further, the “displacement of control ligand, MINK” value on MINK (1 μM) is recorded as 77%. In addition, at MINK (read-out: Kd MINK1), the equilibrium dissociation constant (Kd) was 40 µM.

On to `C=CC(=O)Nc1cccc(Nc2nc(-c3cccc(-n4ncc5cc(C(C)(C)C)cc(F)c5c4=O)c3CO)cn(C)c2=O)c1` [CY-130526], for which the Kd stood at 0.00086 µM at BTK, 2.4 µM at TEC, 1.3 µM at BMX [2] and 14 µM at JAK3. Further, the “selectivity for BTK over TEC, BMX” value on BTK (kinases inhibited the most next to BTK) was > 1000 fold.

As to `C=CC(=O)N1CCCC(n2nc(-c3ccc(Oc4ccccc4)cc3)c3c(N)ncnc32)C1` (stereo not drawn) [PCI-32765], in the assay with arthritis [3], the course of arthritis result is on record as “can reverse” and the “level of circulating autoantibodies” value is listed as “reduces”. The “auto-antibody production and development of kidney disease” value in [4] is given as “inhibited”.

As to `CN1CCN(c2ccc(Nc3cc(-c4cccc(-n5ccc6cc(C7CC7)cc(F)c6c5=O)c4CO)cn(C)c3=O)nc2)CC1` [RN-486], the IC50 in assay [5] is 0.004 µM; in assay [8], 0.017 µM; in [9], 0.0292 µM. The “effect with low dose methotrexate” value in assay [6] is listed as “additive effects”. Besides, in the assay with arthritis [7], the “inhibition of arthritis as measured by clinical scores” value is on record as “complete inhibition”. In addition, the “inhibition of ex vivo anti-IgD stimulated CD69 expression” value in the assay with CD69 expression (3 and 6 h postdose, all doses) is “completely inhibited”; with CD69 expression (24 h postdose) it was 50-80%. Moreover, in the assay with arthritis [10] (mCIA and mCAIA models), the disease progression result is recorded as “dose-dependently inhibits”. Also, the progression of disease result in the assay with arthritis [10] (therapeutic mode, 30 mg/kg) is on record as “did not show progression of disease”. For the same molecule, the “effect in blocking hypersensitive immune responses” value in assay [11] is reported as 91%.
